Results: paper PMC9315260, “Diarylamine-Guided Carboxamide Derivatives: Synthesis, Biological Evaluation, and Potential Mechanism of Action” (Frontiers in Chemistry, 2022)
“Also recorded” adds a separate entry of the source. Values belong to the compound of their own block, whether it stands above or below them.

Key:
NCI-H460 = system: NCI-H460; design: method as in Peng et al., 2017; conditions: ref Peng et al., 2017; cited from earlier work
[1] = system: SGC-7901 (human gastric cancer cell line); assay: MTT in vitro cytotoxicity assay, SGC-7901; type: cell-based; conditions: for IC50: mean ± S.D.; for inhibition at 100 µM: SGC-7901, at 100 µM, read-out: Cell growth inhibition (%) SGC-7901
Description: (§1) The lead molecules A2 and all newly prepared diarylamine derivatives B1-13 and C1-11 were evaluated for their in vitro cytotoxic effects against SGC-7901, A875, HepG2 and MARC145 cell lines by the classical MTT [3-(4,5-dimethylthiazol-2-yl)-2,5-diphenyl tetrazolium bromide] assay ([Alley et al., 1988]; [Ke et al., 2012]; [Shi et al., 2012]; [Yu et al., 2015]; [Ke et al., 2019]; [Xu et al., 2019]; [Huang et al., 2021]) using 5-FU (5-Fluorouracil) as a control.
(§2) The cytotoxicity of target compounds was determined with MTT assay ([Alley et al., 1988]; [Ke et al., 2012]; [Shi et al., 2012]; [Yu et al., 2015]; [Ke et al., 2019]; [Xu et al., 2019]; [Huang et al., 2021]). SGC-7901, A875, HepG2 and MARC145 cell lines were obtained from Hubei Biopesticide Engineering Research Centre. All data of the experiment were analyzed with SPSS software, and all assay were performed in triplicate on three independent experiments, and measurement data were expressed as the mean ± S.D.
(§3) The in vitro cytotoxicity of the synthesized compounds against different cell lines (SGC-7901, A875, HepG2 and MARC145) was measured with MTT assay. All the data of the experiment were analyzed with SPSS software, and the 50% inhibitory concentrations (IC50) of each compound for the different cell lines were determined. A control was run for each test, and all assays were performed in triplicate on three independent experiments, and measurement data were expressed as the mean ± S.D.

[2] = system: HepG2 (human hepatocellular liver carcinoma cell line); assay: MTT in vitro cytotoxicity assay, HepG2; type: cell-based; conditions: for IC50: mean ± S.D.; for inhibition at 100 µM: HepG2, at 100 µM, read-out: Cell growth inhibition (%) HepG2
Description: as §1, §2, §3

A549 = system: A549; design: method as in Peng et al., 2017; conditions: ref Peng et al., 2017; cited from earlier work
MDCK = system: MDCK; design: method as in Peng et al., 2017; conditions: ref Peng et al., 2017; cited from earlier work
[3] = MTT in vitro cytotoxicity assay, MARC145; type: cell-based, African green monkey; conditions: African green monkey, MARC145 cells (kidney cell line, subclone of MA-104), MTT, mean ± S.D.
Description: as §1, §2, §3

[4] = system: lung cancer cell lines (NCI-H460, A549, and NCI-H1975); design: method as in Peng et al., 2017; conditions: ref Peng et al., 2017, read-out: IC50 values against the tested lung cancer cell lines; cited from earlier work
HL-7702 = system: HL-7702; design: method as in Peng et al., 2017; conditions: ref Peng et al., 2017; cited from earlier work
NCI-H1975 = system: NCI-H1975; design: method as in Peng et al., 2017; conditions: ref Peng et al., 2017; cited from earlier work
[5] = system: A875 (human melanoma cell line); assay: MTT in vitro cytotoxicity assay, A875; type: cell-based; conditions: for IC50: mean ± S.D.; for inhibition at 100 µM: A875, at 100 µM, read-out: Cell growth inhibition (%) A875
Description: as §1, §2, §3

A875 cells = assay: LDH release (cellular necrosis); type: cell-based, human; conditions: 24 h after treatment
Description: From the preliminary analysis of apoptosis, the results encourage us to further investigate the type of cell death induced by the potential compounds (C6 and C11). As we know, the release of LDH is a typical characteristic feature of necrotic cell death, and so which was detected.
A875 cells grown in 96-well plates were treated with serial dilutions of each tested compound for 24 h. The culture media were collected, and the concentrations of LDH were determined based on our previous research ([Huang et al., 2021]).
A875 cells grown in 96-well plates were treated with serial dilutions of each tested compound for 24 h. The culture media were collected, and the concentrations of LDH were determined with an LDH assay kit according to the manufacturer’s instructions (Abcam).

[6] = system: SGC-7901, A875, HepG2 and MARC145 cell lines; assay: MTT in vitro cytotoxicity assay, statements over the whole cell panel; type: cell-based; conditions: for cytotoxic effect / inhibition activity in words: IC50-based judgement, compared with 5-FU; for inhibition activity in preliminary screening, in words: at 100 µM, inhibition rate higher than control 5-FU
Description: as §1, §2, §3

[7] = system: MARC145 (subclone of African green monkey kidney cell line MA-104); assay: MTT in vitro cytotoxicity assay, MARC145; type: cell-based; conditions: Chlorocebus sabaeus, MARC145; at 100 µM; read-out: Cell growth inhibition (%) MARC145
Description: as §1, §2, §3

Structure (SMILES): Cc1cc(Cl)cc(C(N)=O)c1NC(=O)c1ccccc1Nc1cccc(C(F)(F)F)c1 [A1]
- IC50 (NCI-H460): > 80 µM
- IC50 ([1]; SGC-7901, Table 1, MTT): 52.8 ± 6.59 µM
- IC50 ([2]; HepG2, Table 1, MTT): > 89 µM
- IC50 (A549): > 80 µM
- IC50 (MDCK): > 80 µM
- IC50 ([3]; Table 1): > 89 µM
- IC50 [4]: > 80 µM
- IC50 (HL-7702): > 80 µM
- IC50 (NCI-H1975): > 80 µM
- IC50 ([5]; A875, Table 1, MTT): 56.9 ± 7.54 µM

Structure (SMILES): O=c1[nH]cc(F)c(=O)[nH]1 [5-FU, 5-Fluorouracil, reference compound]
- release of LDH, in words (A875 cells): significantly increased
- IC50 ([1]; SGC-7901, Table 1, MTT): 71.1 ± 2.65 µM
- IC50 ([1]; SGC-7901, Table 3, MTT): 87.7 ± 11 µM
- inhibition at 100 µM [1]: 56.8 ± 2.2%
- dose-response analysis of cell growth inhibition, in words ([6]; SGC-7901, A875, HepG2, MARC145): significant concentration dependence
- IC50 ([2]; HepG2, Table 1, MTT): 88.1 ± 17.2 µM
- IC50 ([2]; HepG2, Table 3, MTT): 91.8 ± 16.1 µM
- inhibition at 100 µM [2]: 59 ± 3.5%
- inhibition at 100 µM [7]: 60.3 ± 3.9%
- IC50 ([3]; Table 1): 153 ± 11 µM
- IC50 ([3]; Table 3): 99 ± 16.4 µM
- IC50 ([5]; A875, Table 1, MTT): 82.4 ± 23.7 µM
- IC50 ([5]; A875, Table 3, MTT): 101 ± 7.14 µM
- inhibition at 100 µM [5]: 53.2 ± 4.5%

Structure (SMILES): CNC(=O)c1cc(Cl)cc(C)c1NC(=O)c1ccccc1Nc1cccc(C(F)(F)F)c1 [A2]
- IC50 (NCI-H460): 14.8 ± 0.49 µM
- IC50 ([1]; SGC-7901, Table 1, MTT): 8.5 ± 2.26 µM
- IC50 ([6]; SGC-7901, A875, HepG2, MARC145, read-out: IC50 values, span over the tested cell lines): 7.59 to 12.4 µM
- IC50 ([2]; HepG2, Table 1, MTT): 12.4 ± 0.39 µM
- IC50 (A549): 14.7 ± 1.86 µM
- IC50 (MDCK): 46 ± 7.77 µM
- IC50 ([3]; Table 1): 8.13 ± 2.49 µM
- IC50 (HL-7702): 46.4 ± 3.87 µM
- IC50 (NCI-H1975): 23.4 ± 2.21 µM
- IC50 ([5]; A875, Table 1, MTT): 7.59 ± 1.82 µM

- melting point: 97 to 98 °C
Structure (SMILES): O=C(Nc1ccnc(Cl)c1)c1ccccc1Nc1cccc(C(F)(F)F)c1 [C10, N-(2-Chloropyridin-4-yl)-2-((3-(trifluoromethyl)phenyl)amino)benzamide]
- IC50 ([1]; SGC-7901, Table 3, MTT): 8.31 ± 2.94 µM
- inhibition at 100 µM [1]: 86.8 ± 3.2%
- cytotoxic effect / inhibition activity in words [6]: higher inhibition activities compared to the control 5-FU
- inhibition activity in preliminary screening, in words [6]: good inhibition activity
- IC50 ([2]; HepG2, Table 3, MTT): 21.9 ± 1.64 µM
- inhibition at 100 µM [2]: 87.2 ± 4.1%
- inhibition at 100 µM [7]: 80.3 ± 4.6%
- IC50 ([3]; Table 3): 22.7 ± 5.93 µM
- IC50 ([5]; A875, Table 3, MTT): 26.3 ± 7.39 µM
- inhibition at 100 µM [5]: 90.1 ± 5.4%

- melting point: 102 to 103 °C
Structure (SMILES): O=C(Nc1ccc(C(F)(F)F)cc1)c1ccccc1Nc1cccc(C(F)(F)F)c1 [C7, N-(4-(Trifluoromethyl)phenyl)-2-((3-(trifluoromethyl)phenyl)amino)benzamide]
- IC50 ([1]; SGC-7901, Table 3, MTT): 8.91 ± 2.15 µM
- inhibition at 100 µM [1]: 87 ± 2.4%
- cytotoxic effect / inhibition activity in words [6]: good cytotoxic effect; also recorded: higher inhibition activities compared to the control 5-FU
- dose-response analysis of cell growth inhibition, in words ([6]; SGC-7901, A875, HepG2, MARC145): significant concentration dependence
- inhibition activity in preliminary screening, in words [6]: good inhibition activity
- IC50 ([2]; HepG2, Table 3, MTT): 10.4 ± 2.17 µM
- inhibition at 100 µM [2]: 88.5 ± 3.3%
- inhibition at 100 µM [7]: 76.1 ± 3.5%
- IC50 ([3]; Table 3): 11.9 ± 1.37 µM
- IC50 ([5]; A875, Table 3, MTT): 13 ± 3.39 µM
- inhibition at 100 µM [5]: 92.6 ± 4.9%
